Experimental findings from ChEMBL document CHEMBL1143119, “Novel methylene-linked heterocyclic EP1 receptor antagonists” (Bioorg Med Chem Lett, 2008) are described below.

Each structure is given as a SMILES string. Where only a bound is given, the exact number is not on record here.

Data set [1] is described as follows: Distribution coefficient, log D at pH 7.8. It counts as physicochemical. To be noted: octanol/water.
The target of data set [2] is T1, Prostaglandin E2 receptor EP1 subtype (Homo sapiens, UniProt P34995).
T1 sequence (P34995 whole entry): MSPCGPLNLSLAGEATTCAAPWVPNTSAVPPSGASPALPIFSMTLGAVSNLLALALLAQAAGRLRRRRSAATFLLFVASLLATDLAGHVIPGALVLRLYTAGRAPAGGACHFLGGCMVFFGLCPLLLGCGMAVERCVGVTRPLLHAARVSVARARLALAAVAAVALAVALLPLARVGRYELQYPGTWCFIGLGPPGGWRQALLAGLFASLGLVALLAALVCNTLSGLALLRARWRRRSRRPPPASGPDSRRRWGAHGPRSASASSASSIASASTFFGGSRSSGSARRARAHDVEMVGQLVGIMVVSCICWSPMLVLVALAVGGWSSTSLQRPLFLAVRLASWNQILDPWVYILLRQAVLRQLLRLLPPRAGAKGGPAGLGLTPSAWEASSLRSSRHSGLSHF
As to the kind of experiment: Displacement of [3H]PGE2 from EP1 receptor.

Data set [3] has as its target T1, Prostaglandin E2 receptor EP1 subtype. Nature of the data set: Antagonist activity at EP1 receptor by FLIPR assay. Type of data set: functional.

What is called logD is the decadic logarithm of the distribution of all forms, ionised or not, between an organic phase and buffer at a given pH. A higher logD goes with a more lipophilic compound. Regarding `O=C(O)c1cccc(C2=C(c3cc(Cl)ccc3OCc3ccccc3)CCC2)c1`, the logD in data set [1] worked out at 3.

The molecule `Cc1ccc(-c2cc(Cl)ccc2OCC(C)C)n1-c1cccc(C(=O)O)c1` had a log distribution coefficient (logD) in data set [1] of 3.1.

One may read the IC50 as the midpoint of a concentration-inhibition curve. A lower IC50 goes with greater potency in that assay. Turning to `Cc1cc(C(=O)O)nn1Cc1cc(Br)ccc1OCc1ccccc1`, the logD in data set [1] worked out at 1.2. Besides, in data set [2], the 50% inhibitory concentration (IC50) was 6.31 nM.

`CC(C)COc1ccc(Cl)cc1Cc1nc(C(=O)O)cs1` gave a concentration for half-maximal inhibition (IC50) in data set [2] of 7.94 nM. That is a single-digit nanomolar value.

In data set [1], `O=C(O)c1csc(Cc2cc(Cl)ccc2OCc2ccccc2)n1` had a log distribution coefficient (logD) of 1.2. In data set [2], the IC50 is 6.31 nM.

Molecule `O=C(O)c1csc(Cc2cc(Cl)ccc2OCc2ccccc2)c1` returned a log distribution coefficient (logD) in data set [1] of 2.8. The IC50 in data set [2] is 39.8 nM.

A word on the Ki: it is a measure of affinity in units of concentration, obtained from inhibition or displacement. Regarding `O=C(O)c1coc(Cc2cc(Cl)ccc2OCc2ccccc2)n1`, in data set [3], the affinity corresponds to a Ki of 1.58 nM. This molecule also came in with a pH-dependent lipophilicity (logD) in data set [1] of 0.5. In data set [2], this molecule had a 50% inhibitory concentration (IC50) of 20 nM.

The molecule `O=C(O)c1cnc(Cc2cc(Cl)ccc2OCc2ccccc2)s1` returned a log distribution coefficient (logD) in data set [1] of 0.9. This molecule showed a half-maximal inhibitory concentration (IC50) in data set [2] of 631 nM.

Turning to `O=C(O)c1nc(Cc2cc(Cl)ccc2OCc2ccccc2)cs1`, the logD in data set [1] is 1.1. In data set [2], this molecule had an IC50 of 25.1 nM.

Take `O=C(O)c1cncc(Cc2cc(Cl)ccc2OCc2ccccc2)c1`: the log distribution coefficient (logD) in data set [1] is 1.4. Besides, the concentration for half-maximal inhibition (IC50) in data set [2] is 631 nM.

For the molecule `O=C(O)c1ccnc(Cc2cc(Cl)ccc2OCc2ccccc2)c1`, the logD in data set [1] came out at 1.1. Besides, in data set [2], the IC50 is above 1000 nM.

As to `O=C(O)Cc1csc(Cc2cc(Cl)ccc2OCc2ccccc2)n1`, the concentration for half-maximal inhibition (IC50) in data set [2] was above 1000 nM.

In turn, `Cc1cc(CC(=O)O)nn1-c1cc(Cl)ccc1OCc1ccccc1` showed an IC50 in data set [2] above 1000 nM.

Consider `O=C(O)c1csc(-c2cc(Cl)ccc2OCc2ccccc2)n1`, for which the IC50 in data set [2] was 631 nM.

With `O=C(O)c1cccc(Cc2cc(Cl)ccc2OCc2ccccc2)n1`, the logD in data set [1] came to 2.2. In data set [2], this molecule showed an IC50 of 158 nM.

Molecule `Cc1cc(C(=O)O)nn1Cc1cc(Cl)ccc1OCC(C)C` had a Ki in data set [3] of 0.794 nM. For the same molecule, in data set [2], the half-maximal inhibitory concentration (IC50) is 10 nM.

In turn, `O=C(O)c1ccc(Cc2cc(Cl)ccc2OCc2ccccc2)o1` gave a Ki in data set [3] of 2 nM. This molecule gave a logD in data set [1] of 1.5. Further, the IC50 in data set [2] was 6.31 nM.

`O=C(O)c1cccc(Oc2cc(Cl)ccc2OCc2ccccc2)n1`: in data set [2], the IC50 is 794 nM. This counts as sub-micromolar.

On to `Cc1ccc(-c2cc(Cl)ccc2OCc2ccccc2)n1-c1cccc(C(=O)O)c1`, for which the logD in data set [1] worked out at 2.5.

In the case of `O=C(O)c1csc(Nc2cc(Cl)ccc2OCc2ccccc2)n1`, in data set [2], the IC50 is 25.1 nM. This counts as double-digit nanomolar.

Consider `CC(C)COc1ccc(Cl)cc1Cc1cccc(C(=O)O)n1`, for which the inhibition constant Ki in data set [3] was 158 nM. The half-inhibitory concentration (IC50) in data set [2] is 39.8 nM.

Molecule `CC(C)COc1ccc(Cl)cc1Cc1ccc(C(=O)O)o1` had a Ki in data set [3] of 0.316 nM. The molecule further gave a concentration for half-maximal inhibition (IC50) in data set [2] of 3.16 nM.

On to `Cc1cc(C(=O)O)cn1Cc1cc(Cl)ccc1OCc1ccccc1`, for which the logD in data set [1] is 3. Also, the IC50 in data set [2] was 158 nM.

In turn, `O=C(O)c1ccn(Cc2cc(Cl)ccc2OCc2ccccc2)n1` yielded a logD in data set [1] of 0.7. The same molecule showed an IC50 in data set [2] of 79.4 nM.

In data set [2], `O=C(O)c1cccc(Nc2ccccc2OCc2ccccc2)n1` showed an IC50 above 1000 nM.

In data set [1], `O=C(O)c1cccc(Cc2cc(Cl)ccc2OCc2ccccc2)c1` showed a pH-dependent lipophilicity (logD) of 3. For the same molecule, the IC50 in data set [2] was 316 nM.

The molecule `Cc1cc(C(=O)O)nn1Cc1cc(Cl)ccc1OCc1ccccc1` gave a pH-dependent lipophilicity (logD) in data set [1] of 1. Also, the 50% inhibitory concentration (IC50) in data set [2] is 10 nM.

As for `O=C(O)Cc1csc(-c2cc(Cl)ccc2OCc2ccccc2)n1`, the concentration for half-maximal inhibition (IC50) in data set [2] was 50.1 nM.

In data set [3], `Cc1cc(C(=O)O)oc1Cc1cc(Cl)ccc1OCc1ccccc1` had an inhibition constant Ki of 2 nM. Besides, in data set [1], the logD stood at 1.8. Besides, in data set [2], the concentration for half-maximal inhibition (IC50) is 10 nM.

Turning to `O=C(O)c1ccc(Cc2cc(Cl)ccc2OCc2ccccc2)s1`, in data set [3], the affinity, expressed as Ki, was 15.8 nM. The molecule also had a logD in data set [1] of 2.3. Moreover, the IC50 in data set [2] was 50.1 nM.

With `Cn1cc(C(=O)O)nc1Cc1cc(Cl)ccc1OCc1ccccc1`, in data set [1], the logD worked out at 0.7. Also, the IC50 in data set [2] was 316 nM.

`O=C(O)c1c[nH]c(Cc2cc(Cl)ccc2OCc2ccccc2)n1` had a logD in data set [1] of 0.6. In addition, the IC50 in data set [2] is above 1000 nM.

In data set [1], `Cn1c(C(=O)O)cnc1Cc1cc(Cl)ccc1OCc1ccccc1` returned a logD of 0.7. The 50% inhibitory concentration (IC50) in data set [2] is above 1000 nM.
